Data on 15 molecules can be found in patent publication US7244758B2, “N-type calcium channel blockers” (Neuromed Pharmaceuticals Ltd., priority 2003, dated 2007).

Assay [1] deals with T1, rat brain N-type calcium channel subunits (α1B+α2δ+β1b) (Rattus norvegicus, UniProt Q02294).
T1 construct: expressed in transfected cells; host or cells: HEK 293
Briefly: N-type calcium channel block, whole cell patch clamp in HEK 293 cells. Format: cell-based. The settings on record: holding −80 mV to +10 mV, 5 mM Ba. Here is the method:
Antagonist activity was measured using whole cell patch recordings on human embryonic kidney cells either stably or transiently expressing rat α1B+α2δ+β1b channels (N-type channels) with 5 mM barium as a charge carrier. P/Q-type channels (α1A+α2δ+β1b cDNA subunits) and L-type channels (α1C+α2δ+β1b cDNA subunits) were also transiently expressed in HEK 293 cells.
For transient expression, host cells, such as human embryonic kidney cells, HEK 293 (ATCC# CRL 1573) were grown in standard DMEM medium supplemented with 2 mM glutamine and 10% fetal bovine serum. HEK 293 cells were transfected by a standard calcium-phosphate-DNA coprecipitation method using the rat α1B+β1b+α2δ N-type calcium channel subunits in a vertebrate expression vector (for example, see Current Protocols in Molecular Biology).
After an incubation period of from 24 to 72 hrs the culture medium was removed and replaced with external recording solution (see below). Whole cell patch clamp experiments were performed using an Axopatch 200B amplifier (Axon Instruments, Burlingame, Calif.) linked to an IBM compatible personal computer equipped with pCLAMP software. Borosilicate glass patch pipettes (Sutter Instrument Co., Novato, Calif.) were polished (Microforge, Narishige, Japan) to a resistance of about 4 MΩ when filled with cesium methanesulfonate internal solution (composition in MM: 109 CsCH3 SO4, 4 MgCl2, 9 EGTA, 9 HEPES, pH 7.2). Cells were bathed in 5 mM Ba^++ (in mM: 5 BaCl2, 1 MgCl2, 10 HEPES, 40 tetraethylammonium chloride, 10 glucose, 87.5 CsCl pH 7.2). […] Drugs were perfused directly into the vicinity of the cells using a microperfusion system.
Normalized dose-response curves were fit (Sigmaplot 4.0, SPSS Inc., Chicago, Ill.) by the Hill equation to determine IC50 values. Steady-state inactivation curves were plotted as the normalized test pulse amplitude following 5 s inactivating prepulses at +10 mV increments. Inactivation curves were fit (Sigmaplot 4.0) with the Boltzman equation, Ipeak (normalized)=1/(1+exp((V−Vh)z/25.6)), where V and Vh are the conditioning and half inactivation potentials, respectively, and z is the slope factor.
N-type calcium channel blocking activity was assayed in human embryonic kidney cells, HEK 293, stably transfected with the rat brain N-type calcium channel subunits (α1B+α2δ+β1b cDNA subunits). Alternatively, N-type calcium channels (α1B+α2δ+β1b cDNA subunits), L-type channels (α1C+α2δ+β1b cDNA subunits) and P/Q-type channels (α1A+α2δ+β1b cDNA subunits) were transiently expressed in HEK 293 cells. Briefly, cells were cultured in Dulbecco's modified eagle medium (DMEM) supplemented with 10% fetal bovine serum, 200 U/ml penicillin and 0.2 mg/ml streptomycin at 37° C. with 5% CO2. At 85% confluency cells were split with 0.25% trypsin/1 mM EDTA and plated at 10% confluency on glass coverslips. At 12 hours the medium was replaced and the cells transiently transfected using a standard calcium phosphate protocol and the appropriate calcium channel cDNA's. Fresh DMEM was supplied and the cells transferred to 28° C./5% CO2. Cells were incubated for 1 to 2 days to whole cell recording.
Whole cell patch clamp experiments were performed using an Axopatch 200B amplifier (Axon Instruments, Burlingame, Calif.) linked to a personal computer equipped with pCLAMP software. The external and internal recording solutions contained, respectively, 5 mM BaCl2, […], 10 mM HEPES, 40 mM TEACl, 10 mM glucose, 87.5 mM CsCl (pH 7.2) and 108 mM CsMS, 4 mM MgCl2, 9 mM EGTA, 9 mM HEPES (pH 7.2). Currents were typically elicited from a holding potential of −80 mV to +10 mV using Clampex software (Axon Instruments).
For orientation: In patch-clamp work, channel activity is measured electrically.

The target in assay [2] is T2, human α1G T-type channels (Homo sapiens, UniProt O43497).
T2 construct: expressed in transfected cells
T2 sequence (O43497 whole entry): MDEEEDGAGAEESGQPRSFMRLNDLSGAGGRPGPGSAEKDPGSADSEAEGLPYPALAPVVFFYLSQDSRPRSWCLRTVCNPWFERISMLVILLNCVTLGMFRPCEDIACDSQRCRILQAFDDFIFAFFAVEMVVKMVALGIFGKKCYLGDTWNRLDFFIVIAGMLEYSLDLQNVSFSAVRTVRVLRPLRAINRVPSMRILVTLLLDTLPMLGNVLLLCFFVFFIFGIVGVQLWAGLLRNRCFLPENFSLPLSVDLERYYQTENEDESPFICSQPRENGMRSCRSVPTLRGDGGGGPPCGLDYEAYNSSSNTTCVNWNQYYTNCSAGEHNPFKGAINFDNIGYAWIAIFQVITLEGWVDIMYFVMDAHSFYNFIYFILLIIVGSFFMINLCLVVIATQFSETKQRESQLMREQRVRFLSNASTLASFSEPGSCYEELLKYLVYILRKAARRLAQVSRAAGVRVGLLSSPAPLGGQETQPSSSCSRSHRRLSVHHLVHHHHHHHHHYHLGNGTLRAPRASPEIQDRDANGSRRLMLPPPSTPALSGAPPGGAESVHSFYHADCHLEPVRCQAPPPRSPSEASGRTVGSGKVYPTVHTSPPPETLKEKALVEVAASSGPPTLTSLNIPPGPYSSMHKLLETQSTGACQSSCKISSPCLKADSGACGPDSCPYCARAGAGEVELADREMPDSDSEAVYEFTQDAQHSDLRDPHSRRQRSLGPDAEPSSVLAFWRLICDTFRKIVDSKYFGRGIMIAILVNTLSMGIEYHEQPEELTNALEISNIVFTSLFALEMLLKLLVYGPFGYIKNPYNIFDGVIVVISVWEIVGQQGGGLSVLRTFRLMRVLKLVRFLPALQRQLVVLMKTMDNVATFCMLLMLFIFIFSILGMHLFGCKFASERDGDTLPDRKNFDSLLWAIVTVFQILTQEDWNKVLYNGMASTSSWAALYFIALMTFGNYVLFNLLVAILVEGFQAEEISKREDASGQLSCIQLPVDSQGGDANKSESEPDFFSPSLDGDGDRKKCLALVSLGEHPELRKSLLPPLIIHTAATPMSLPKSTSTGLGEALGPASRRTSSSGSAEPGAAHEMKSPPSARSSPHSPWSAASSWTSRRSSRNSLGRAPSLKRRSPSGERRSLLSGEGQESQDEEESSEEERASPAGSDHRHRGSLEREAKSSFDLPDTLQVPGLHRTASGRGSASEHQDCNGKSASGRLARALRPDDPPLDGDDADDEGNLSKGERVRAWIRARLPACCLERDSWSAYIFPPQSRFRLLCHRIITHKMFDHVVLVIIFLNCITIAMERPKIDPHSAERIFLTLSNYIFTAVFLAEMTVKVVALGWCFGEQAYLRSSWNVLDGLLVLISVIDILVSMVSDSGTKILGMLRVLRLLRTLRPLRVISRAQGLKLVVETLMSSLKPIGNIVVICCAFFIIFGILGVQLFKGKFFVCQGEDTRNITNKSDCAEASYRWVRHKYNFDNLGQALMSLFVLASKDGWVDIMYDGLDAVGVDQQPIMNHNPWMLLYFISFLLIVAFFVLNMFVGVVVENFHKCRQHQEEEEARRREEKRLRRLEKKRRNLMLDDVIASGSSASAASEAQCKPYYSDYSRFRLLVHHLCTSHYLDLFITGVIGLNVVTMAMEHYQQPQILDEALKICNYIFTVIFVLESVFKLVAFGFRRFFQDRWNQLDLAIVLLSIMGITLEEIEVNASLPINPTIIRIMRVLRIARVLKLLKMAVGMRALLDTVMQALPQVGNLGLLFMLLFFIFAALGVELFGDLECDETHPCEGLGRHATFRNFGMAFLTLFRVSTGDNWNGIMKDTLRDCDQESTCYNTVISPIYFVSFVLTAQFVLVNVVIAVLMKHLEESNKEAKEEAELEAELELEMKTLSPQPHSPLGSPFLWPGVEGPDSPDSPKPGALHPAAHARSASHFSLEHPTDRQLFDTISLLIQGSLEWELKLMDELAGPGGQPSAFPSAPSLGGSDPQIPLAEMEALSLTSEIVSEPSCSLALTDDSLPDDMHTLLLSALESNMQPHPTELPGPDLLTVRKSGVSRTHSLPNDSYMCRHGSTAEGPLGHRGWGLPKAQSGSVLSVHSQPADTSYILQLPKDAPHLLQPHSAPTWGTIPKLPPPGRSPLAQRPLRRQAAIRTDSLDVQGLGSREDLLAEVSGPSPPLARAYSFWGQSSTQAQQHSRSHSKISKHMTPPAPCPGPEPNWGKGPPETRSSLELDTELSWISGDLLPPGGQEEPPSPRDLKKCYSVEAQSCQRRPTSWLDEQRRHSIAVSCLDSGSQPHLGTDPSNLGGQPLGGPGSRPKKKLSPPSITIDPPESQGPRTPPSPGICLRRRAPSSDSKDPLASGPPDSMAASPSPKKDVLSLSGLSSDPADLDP
Briefly: Block of α1G T-type channels, whole-cell patch clamp in HEK cells. Format: cell-based. As for the experimental part: Standard patch-clamp techniques were employed to identify blockers of T-type currents. Briefly, previously described HEK cell lines stably expressing human α1G T-type channels were used for all the recordings (passage #: 4-20, 37° C., 5% CO2). To obtain T-type currents, plastic dishes containing semi-confluent cells were positioned on the stage of a ZEISS AXIOVERT S100 microscope after replacing the culture medium with external solution (see below). Whole-cell patches were obtained using pipettes (borosilicate glass with filament, O.D.: 1.5 mm, I.D.: 0.86 mm, 10 cm length), fabricated on a SUTTER P-97 puller with resistance values of ˜5 MΩ (see below for internal solution).
In the non-inactivating protocol, the holding potential is set at −110 mV and with a pre-pulse at −100 mV for 1 second prior to the test pulse at −40 mV for 50 ms. […]
Test compounds were dissolved in external solution, 0.1-0.01% DMSO. After ˜10 min rest, they were applied by gravity close to the cell using a WPI microfil tubing. The “non-inactivated” pre-pulse was used to examine the resting block of a compound. The “inactivated” protocol was employed to study voltage-dependent block. However, the initial data shown below were mainly obtained using the non-inactivated protocol only. IC50 values are shown for various compounds of the invention in Table 6.

A further assay concerns rat formalin model. Put plainly: Formalin-induced pain model (paw flinches). Format: in vivo. The settings on record: 30 mg/kg IP, 10 min before formalin, saline control=100%. Here is the method: The effects of intrathecally delivered compounds of the invention on the rat formalin model were measured. The compounds were reconstituted to stock solutions of approximately 10 mg/ml in propylene glycol. Eight Holtzman male rats of 275-375 g size were randomly selected per test article.
The following study groups were used, with test article, vehicle control (propylene glycol) and saline delivered intraperitoneally (IP):
Prior to initiation of drug delivery baseline behavioral and testing data were taken.
On the morning of testing, a small metal band (0.5 g) was loosely placed around the right hind paw. The rat was placed in a cylindrical Plexiglas chamber for adaptation a minimum of 30 minutes. Test Article or Vehicle Control Article was administered 10 minutes prior to formalin injection (50 μl of 5% formalin) into the dorsal surface of the right hindpaw of the rat. The animal was then placed into the chamber of the automated formalin apparatus where movement of the formalin injected paw was monitored and the number of paw flinches tallied by minute over the next 60 minutes (Malmberg, A. B., et al., Anesthesiology (1993) 79:270-281).
Results are presented as Maximum Possible Effect±SEM, where saline control=100%.

[3] abbreviates: low frequency stimulation 0.067 Hz (tonic block), read-out: IC50 at 0.067 Hz.
[4] abbreviates: pulse frequency 0.2 Hz (frequency dependent block), read-out: IC50 at 0.2 Hz.
Where [5] appears, read: inactivation protocol (voltage-dependent block), read-out: IC50 at −80 mV.
The mark [6] stands for this setting: non-inactivating protocol, pre-pulse −100 mV (resting block), read-out: IC50 at −100 mV.

Where two headings read alike, the source gives them in different places.

T1 sequence (Q02294 whole entry): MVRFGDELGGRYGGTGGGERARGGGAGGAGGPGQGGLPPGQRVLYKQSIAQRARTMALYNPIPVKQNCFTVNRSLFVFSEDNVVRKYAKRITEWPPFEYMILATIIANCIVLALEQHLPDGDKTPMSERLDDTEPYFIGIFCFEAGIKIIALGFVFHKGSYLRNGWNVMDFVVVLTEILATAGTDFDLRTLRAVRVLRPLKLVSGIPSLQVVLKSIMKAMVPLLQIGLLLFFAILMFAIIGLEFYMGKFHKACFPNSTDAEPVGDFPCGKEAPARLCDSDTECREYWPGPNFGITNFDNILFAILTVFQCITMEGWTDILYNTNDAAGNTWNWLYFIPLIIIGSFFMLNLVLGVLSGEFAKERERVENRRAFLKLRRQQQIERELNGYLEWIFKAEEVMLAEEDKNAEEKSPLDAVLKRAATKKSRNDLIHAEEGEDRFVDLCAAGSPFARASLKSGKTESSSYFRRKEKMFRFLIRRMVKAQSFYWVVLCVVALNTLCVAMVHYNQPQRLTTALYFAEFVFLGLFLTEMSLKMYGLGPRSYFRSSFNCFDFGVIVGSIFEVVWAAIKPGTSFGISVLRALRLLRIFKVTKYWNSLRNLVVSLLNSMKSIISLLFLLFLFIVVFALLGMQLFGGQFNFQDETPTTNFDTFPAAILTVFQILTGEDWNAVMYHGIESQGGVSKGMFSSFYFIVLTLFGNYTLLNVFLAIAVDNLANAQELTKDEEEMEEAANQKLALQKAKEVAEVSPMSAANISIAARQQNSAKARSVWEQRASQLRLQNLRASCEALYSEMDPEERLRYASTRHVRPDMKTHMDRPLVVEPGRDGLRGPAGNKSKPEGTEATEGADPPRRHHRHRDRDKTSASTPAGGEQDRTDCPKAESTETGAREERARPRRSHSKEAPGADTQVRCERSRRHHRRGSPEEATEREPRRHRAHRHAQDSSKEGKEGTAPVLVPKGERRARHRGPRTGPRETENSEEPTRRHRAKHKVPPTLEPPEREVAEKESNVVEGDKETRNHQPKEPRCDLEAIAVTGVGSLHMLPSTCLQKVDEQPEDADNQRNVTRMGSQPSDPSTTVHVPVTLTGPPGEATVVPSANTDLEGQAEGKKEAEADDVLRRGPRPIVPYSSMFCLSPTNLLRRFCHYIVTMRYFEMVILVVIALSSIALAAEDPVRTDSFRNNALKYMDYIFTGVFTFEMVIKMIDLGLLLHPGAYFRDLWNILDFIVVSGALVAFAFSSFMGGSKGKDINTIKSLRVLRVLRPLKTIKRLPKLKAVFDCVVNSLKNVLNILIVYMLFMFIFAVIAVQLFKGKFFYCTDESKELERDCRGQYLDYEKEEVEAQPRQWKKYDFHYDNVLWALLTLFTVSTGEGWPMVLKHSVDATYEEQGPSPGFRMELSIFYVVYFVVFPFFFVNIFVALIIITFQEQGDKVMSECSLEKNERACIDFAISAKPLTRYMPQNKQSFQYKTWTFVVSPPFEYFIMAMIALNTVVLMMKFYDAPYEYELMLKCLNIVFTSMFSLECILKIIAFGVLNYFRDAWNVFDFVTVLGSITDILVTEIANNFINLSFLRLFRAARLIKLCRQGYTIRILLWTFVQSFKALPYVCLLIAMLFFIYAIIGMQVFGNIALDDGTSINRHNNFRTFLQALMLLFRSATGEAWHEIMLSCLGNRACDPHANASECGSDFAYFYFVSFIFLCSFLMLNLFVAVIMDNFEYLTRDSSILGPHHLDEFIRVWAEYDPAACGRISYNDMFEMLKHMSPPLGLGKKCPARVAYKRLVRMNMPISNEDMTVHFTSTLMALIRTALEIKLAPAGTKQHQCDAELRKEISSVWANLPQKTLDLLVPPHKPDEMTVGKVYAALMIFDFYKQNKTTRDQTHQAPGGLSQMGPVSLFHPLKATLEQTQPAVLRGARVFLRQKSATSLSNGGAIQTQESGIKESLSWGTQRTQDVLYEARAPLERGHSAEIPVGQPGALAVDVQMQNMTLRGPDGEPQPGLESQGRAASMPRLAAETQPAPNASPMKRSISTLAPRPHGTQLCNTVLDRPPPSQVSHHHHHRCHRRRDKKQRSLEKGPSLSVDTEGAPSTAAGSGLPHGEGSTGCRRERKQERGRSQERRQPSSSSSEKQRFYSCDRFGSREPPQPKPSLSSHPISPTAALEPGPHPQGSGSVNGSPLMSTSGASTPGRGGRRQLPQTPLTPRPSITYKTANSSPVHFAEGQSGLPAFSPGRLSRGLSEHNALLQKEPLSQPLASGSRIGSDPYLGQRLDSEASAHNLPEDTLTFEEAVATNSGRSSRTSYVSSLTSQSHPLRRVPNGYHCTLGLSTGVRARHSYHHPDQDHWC

One may read the IC50 as the concentration needed to halve the response being measured. `CN(Cc1cc(C(F)(F)F)cc(C(F)(F)F)c1)CC1CCN(C(=O)CCCCC(c2ccc(F)cc2)c2ccc(F)cc2)C1` (centres unmarked) [Compound P57]: the IC50 in assay [1] (setting [3]) was 225 nM; in assay [1] (setting [4]) it was 81 nM; in assay [2] (setting [5]), 28 nM; in assay [2] (setting [6]), 115 nM.

With `O=C(NCC1CCN(C(=O)CCCCC(c2ccc(F)cc2)c2ccc(F)cc2)C1)c1cc(C(F)(F)F)cc(C(F)(F)F)c1` (centres unmarked) [Compound P49], the IC50 in assay [1] (setting [3]) came to 136 nM; in assay [1] (setting [4]) it was 89 nM; in assay [2] (setting [5]), 8 nM; in assay [2] (setting [6]), 18 nM.

As to `O=C(CC(c1ccccc1)c1ccccc1)NCC1CCN(C(c2ccccc2)c2ccccc2Cl)C1` (centres unmarked) [Compound P37], the IC50 amounted to 23 nM in assay [1] (setting [3]), 8 nM in assay [1] (setting [4]), 28 nM in assay [2] (setting [5]) and 111 nM in assay [2] (setting [6]).

Regarding `COc1c(C(C)(C)C)cc(C(=O)NCC2CCN(C(=O)CCCCC(c3ccc(F)cc3)c3ccc(F)cc3)C2)cc1C(C)(C)C` (centres unmarked) [Compound P13], in the assay on rat formalin model, the “Maximum Possible Effect ± SEM, Phase I” value is listed as 85 ± 9%; the “Maximum Possible Effect ± SEM, Phase II” value amounted to 86 ± 7%; the “Maximum Possible Effect ± SEM, Phase IIA” value was found to be 86 ± 5%. Besides, the concentration for half-maximal inhibition (IC50) in assay [2] (setting [5]) amounted to 0.7 nM. For the same molecule, the IC50 in assay [2] (setting [6]) was 1.5 nM.

As to `COc1cc(C(=O)N2CCC(CNC(=O)CCCCC(c3ccc(F)cc3)c3ccc(F)cc3)C2)cc(OC)c1OC` (centres unmarked) [Compound P5], the IC50 in assay [1] (setting [3]) was found to be 59 nM. For the same molecule, the “IC50 at −100 mV” value in assay [2] (non-inactivating protocol, pre-pulse −100 mV (resting block)) was “No effect”.

`O=C(CC(c1ccccc1)c1ccccc1)N1CCC(CNC(c2ccccc2)c2ccccc2)C1` (centres unmarked) [Compound P2]: the IC50 turned out to be 1070 nM in assay [1] (setting [3]), 840 nM in assay [1] (setting [4]), 52 nM in assay [2] (setting [5]) and 326 nM in assay [2] (setting [6]).

Take `O=C(COc1ccc(F)cc1F)NCC1CCN(C(=O)CCCCC(c2ccc(F)cc2)c2ccc(F)cc2)C1` (centres unmarked) [Compound P31]: the IC50 came out at 563 nM in assay [1] (setting [3]), 220 nM in assay [1] (setting [4]), 196 nM in assay [2] (setting [5]) and 460 nM in assay [2] (setting [6]).

In the case of `O=C(COc1ccc(Cl)cc1)NCC1CCN(C(=O)CCCCC(c2ccc(F)cc2)c2ccc(F)cc2)C1` (centres unmarked) [Compound P36], the IC50 came to 100 nM in assay [1] (setting [3]), 20 nM in assay [1] (setting [4]), 12 nM in assay [2] (setting [5]) and 30 nM in assay [2] (setting [6]).

`CN(CC(=O)N(c1ccccc1)c1ccccc1)CC1CCN(C(c2ccccc2)c2ccccc2)C1` (centres unmarked) [Compound P54]: the 50% inhibitory concentration (IC50) turned out to be 279 nM in assay [1] (setting [3]), 241 nM in assay [1] (setting [4]), 55 nM in assay [2] (setting [5]) and 153 nM in assay [2] (setting [6]).

For `O=C(CC(c1ccccc1)c1ccccc1)NCC1CCN(C(c2ccccc2)c2cccc(Cl)c2)C1` (centres unmarked) [Compound P38], the half-maximal inhibitory concentration (IC50) came out at 80 nM in assay [1] (setting [3]), 24 nM in assay [1] (setting [4]), 21 nM in assay [2] (setting [5]) and 94 nM in assay [2] (setting [6]).

On to `O=C(NCC1CCN(C(=O)CCCCC(c2ccc(F)cc2)c2ccc(F)cc2)C1)c1cc(C(F)(F)F)cc(C(F)(F)F)c1` (centres unmarked) [Compound P24], for which, in the assay on rat formalin model, the “Maximum Possible Effect ± SEM, Phase I” value is 66 ± 11%; the “Maximum Possible Effect ± SEM, Phase II” value is on record as 38 ± 7%; the “Maximum Possible Effect ± SEM, Phase IIA” value was 20 ± 4%. In addition, the IC50 in assay [1] (setting [3]) came to 380 nM. Besides, the concentration for half-maximal inhibition (IC50) in assay [1] (setting [4]) worked out at 210 nM. In addition, the IC50 in assay [2] (setting [6]) amounted to 12 nM.

For `c1ccc(C(c2ccccc2)N2CCC(CN(CCN(c3ccccc3)c3ccccc3)CCN(c3ccccc3)c3ccccc3)C2)cc1` (centres unmarked) [Compound P59], the IC50 is 8000 nM in assay [1] (setting [3]), 2000 nM in assay [1] (setting [4]), 6000 nM in assay [2] (setting [5]) and 40000 nM in assay [2] (setting [6]).

Take `O=C(CC(c1ccccc1)c1ccccc1)NCC1CCN(C(c2ccccc2)c2ccc(C(F)(F)F)cc2)C1` (centres unmarked) [Compound P39]: the IC50 in assay [1] (setting [3]) was found to be 179 nM; in assay [1] (setting [4]) it was 257 nM; in assay [2] (setting [5]) it was 3 nM; in assay [2] (setting [6]), 12 nM.

On to `O=C(NCC1CCN(C(=O)CCCCC(c2ccc(F)cc2)c2ccc(F)cc2)C1)c1cc(Br)c(O)c(Br)c1` (centres unmarked) [Compound P15], for which the concentration for half-maximal inhibition (IC50) was > 1000 nM in assay [1] (setting [3]) and > 10000 nM in assay [2] (setting [6]).

Consider `CN(C(=O)CN(CC(=O)N(C)c1ccccc1)CC1CCN(C(c2ccccc2)c2ccccc2)C1)c1ccccc1` (centres unmarked) [Compound P60], for which the IC50 in assay [1] (setting [3]) was determined as 57 nM; in assay [1] (setting [4]), 45 nM; in assay [2] (setting [5]) it was 227 nM; in assay [2] (setting [6]) it was 618 nM.
